Columns and labels:
ABCB1 [1] = target: T1, ABCB1 (Homo sapiens, UniProt P08183); conditions: cited from earlier work; also: key: the inhibitor is active (+); it is inactive (−); the effect is unknown (?)
ABCC1 = ABCC1 (Homo sapiens, UniProt P33527); conditions: cited from earlier work; also: key: the inhibitor is active (+); it is inactive (−); the effect is unknown (?)
ABCG2 = target: T2, ABCG2 (Homo sapiens, UniProt Q9UNQ0); conditions: cited from earlier work
T2 sequence (Q9UNQ0 1-655): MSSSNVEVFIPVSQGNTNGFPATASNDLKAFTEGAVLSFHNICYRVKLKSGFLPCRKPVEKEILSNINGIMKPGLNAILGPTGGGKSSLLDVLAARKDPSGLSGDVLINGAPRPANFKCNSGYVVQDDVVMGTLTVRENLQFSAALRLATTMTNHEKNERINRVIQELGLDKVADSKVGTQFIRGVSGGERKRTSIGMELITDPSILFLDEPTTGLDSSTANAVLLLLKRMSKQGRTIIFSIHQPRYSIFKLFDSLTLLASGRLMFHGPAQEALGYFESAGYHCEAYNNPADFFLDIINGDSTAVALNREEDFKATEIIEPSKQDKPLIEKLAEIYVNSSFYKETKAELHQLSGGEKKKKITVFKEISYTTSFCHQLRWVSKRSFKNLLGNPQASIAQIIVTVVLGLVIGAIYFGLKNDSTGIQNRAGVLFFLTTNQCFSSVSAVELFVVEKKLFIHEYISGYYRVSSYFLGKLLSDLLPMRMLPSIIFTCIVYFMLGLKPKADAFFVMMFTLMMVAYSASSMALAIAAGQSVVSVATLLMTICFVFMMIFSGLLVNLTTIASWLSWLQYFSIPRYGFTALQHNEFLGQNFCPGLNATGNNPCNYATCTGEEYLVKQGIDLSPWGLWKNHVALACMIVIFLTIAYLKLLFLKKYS

BCRP/ABCG2 = target: T3, BCRP/ABCG2 (Homo sapiens, UniProt Q9UNQ0); test: Flow cytometry: mitoxantrone efflux induced by ABCG2 in transfected HEK-293 cells; type: cell-based
T3 construct: expressed in transfected cells; host or cells: HEK-293 transfected with pcDNA3.1-ABCG2
T3 sequence (Q9UNQ0 1-655): T2 sequence (Q9UNQ0 1-655)
From the text: (§1) Cell cultures. The human […] HEK-293 transfected with the vector pcDNA3.1 including or not the gene encoding ABCG2 (Robey, R. W., Honjo, Y., Morisaki, K., Nadjem, T. A., Runge, S., Risbood, M., Poruchynsky, M. S., Bates, S. E. 2003, Br. J. Cancer 89(10) 1971-1978) was used to test the efficacy of the products on ABCG2. The newborn hamster kidney cell line BHK21 either natural (negative control) or transfected with the vector pNUT-MRP/His expressing the gene encoding ABCC1 (Chang, Xiu-Bao, Hou, Yue-Xian, Riordan, John R. 1997, J. Biol. Chem. 272(49) 30962-30968) was used to test the efficacy of the products on ABCC1. The cell line NIH3T3 natural or transfected with the vector pHaMDR1/A expressing ABCB1 (Cardarelli, Carol O., Aksentijevich, Ivan, Pastan, Ira, Gottesman, Michael M. 1995 Cancer Res. 55 1086-1091) was used to test the efficacy of the compounds on ABCB1. The various cell types are cultured according to the protocols described previously (Robey, R. W., Honjo, Y., Morisaki, K., Nadjem, T. A., Runge, S., Risbood, M., Poruchynsky, M. S., Bates, S. E. 2003, Br. J. Cancer 89(10) 1971-1978 for the line HEK293, Chang, Xiu-Bao, Hou, Yue-Xian, Riordan, John R. 1997, J. Biol. Chem. 272(49) 30962-30968 for the line BHK21 and Cardarelli, Carol O., Aksentijevich, Ivan, Pastan, Ira, Gottesman, Michael M. 1995 Cancer Res. 55 1086-1091 for the line NIH3T3).
(§2) FIG. 1 schematically illustrates an efflux of substrate induced by a typical ABC transporter. The substrates S, such as mitoxantrone effluxed with ABCG2 and ABCB1 or daunorubicin effluxed with ABCC1, are accumulated in the cells and expelled by the transporter T, leading to a decrease in intracellular fluorescence. In the case of accumulation of the product, typically by inhibition of the efflux protein, the intracellular fluorescence increases.
(§3) Flow cytometry. Transfected or untransfected HEK-293 and BHK-21 cells are in a first stage placed in contact with substrate (5 μM mitoxantrone or 1 μM daunorubicin depending on the transporter). The substrate is accumulated for 30 minutes at 37° C. in the presence or absence of varied concentrations of the test molecules, at 0.5% of DMSO final. After washing with PBS, the cells are incubated in medium containing the same concentrations of test molecules as previously, for 1 hour at 37° C. The drug intracellular fluorescence is measured with a FACscan flow cytometer (Becton Dickinson, Mountain View, Calif.). The fluorescent substrates are excited at 488 nm; the fluorescence emission of mitoxantrone (MTX) is measured at 650 nm and that of daunorubicin is measured at 530 nm. The efficacy of the test molecules is estimated by means of equation 1:
(§4) % efficacy=100×(FA−FBG)/(FC−FBG),
(§5) in which: • FA corresponds to the intracellular level of substrate measured in the cells overexpressing the transporter T (corresponding to the lowest level of fluorescence in the absence of inhibitor), • FC corresponds to the fluorescence in the control cells not expressing the test transporter. This is thus the maximum accumulation of substrate in the cells), • FBG corresponds to the fluorescence measured in the absence of substrate and in the presence of inhibitor.
(§6) The compounds presented in TABLES 2 to 5 were tested by flow cytometry on mammalian cell lines selectively expressing the efflux proteins ABCG2, ABCB1 or ABCC1, as described previously.
(§7) The mitoxantrone efflux induced by ABCG2 or ABCB1 and the daunorubicin efflux induced by ABCC1 are estimated by flow cytometry, as described previously, at 10 μM of each test compound, and then at 2 μM for the compounds showing at least 80% efficacy at 10 μM. The concentration inducing 50% inhibition (IC50) was estimated for the most efficient aza derivatives. The values are obtained by three independent experiments and were adjusted using the SigmaPlot software.

P-gp/ABCB1 = target: T4, P-gp/ABCB1 (Homo sapiens, UniProt P08183); test: Flow cytometry: mitoxantrone efflux induced by ABCB1 in transfected NIH3T3 cells; type: cell-based
T4 construct: expressed in transfected cells; host or cells: NIH3T3 transfected with pHaMDR1/A
T4 sequence (P08183 whole entry): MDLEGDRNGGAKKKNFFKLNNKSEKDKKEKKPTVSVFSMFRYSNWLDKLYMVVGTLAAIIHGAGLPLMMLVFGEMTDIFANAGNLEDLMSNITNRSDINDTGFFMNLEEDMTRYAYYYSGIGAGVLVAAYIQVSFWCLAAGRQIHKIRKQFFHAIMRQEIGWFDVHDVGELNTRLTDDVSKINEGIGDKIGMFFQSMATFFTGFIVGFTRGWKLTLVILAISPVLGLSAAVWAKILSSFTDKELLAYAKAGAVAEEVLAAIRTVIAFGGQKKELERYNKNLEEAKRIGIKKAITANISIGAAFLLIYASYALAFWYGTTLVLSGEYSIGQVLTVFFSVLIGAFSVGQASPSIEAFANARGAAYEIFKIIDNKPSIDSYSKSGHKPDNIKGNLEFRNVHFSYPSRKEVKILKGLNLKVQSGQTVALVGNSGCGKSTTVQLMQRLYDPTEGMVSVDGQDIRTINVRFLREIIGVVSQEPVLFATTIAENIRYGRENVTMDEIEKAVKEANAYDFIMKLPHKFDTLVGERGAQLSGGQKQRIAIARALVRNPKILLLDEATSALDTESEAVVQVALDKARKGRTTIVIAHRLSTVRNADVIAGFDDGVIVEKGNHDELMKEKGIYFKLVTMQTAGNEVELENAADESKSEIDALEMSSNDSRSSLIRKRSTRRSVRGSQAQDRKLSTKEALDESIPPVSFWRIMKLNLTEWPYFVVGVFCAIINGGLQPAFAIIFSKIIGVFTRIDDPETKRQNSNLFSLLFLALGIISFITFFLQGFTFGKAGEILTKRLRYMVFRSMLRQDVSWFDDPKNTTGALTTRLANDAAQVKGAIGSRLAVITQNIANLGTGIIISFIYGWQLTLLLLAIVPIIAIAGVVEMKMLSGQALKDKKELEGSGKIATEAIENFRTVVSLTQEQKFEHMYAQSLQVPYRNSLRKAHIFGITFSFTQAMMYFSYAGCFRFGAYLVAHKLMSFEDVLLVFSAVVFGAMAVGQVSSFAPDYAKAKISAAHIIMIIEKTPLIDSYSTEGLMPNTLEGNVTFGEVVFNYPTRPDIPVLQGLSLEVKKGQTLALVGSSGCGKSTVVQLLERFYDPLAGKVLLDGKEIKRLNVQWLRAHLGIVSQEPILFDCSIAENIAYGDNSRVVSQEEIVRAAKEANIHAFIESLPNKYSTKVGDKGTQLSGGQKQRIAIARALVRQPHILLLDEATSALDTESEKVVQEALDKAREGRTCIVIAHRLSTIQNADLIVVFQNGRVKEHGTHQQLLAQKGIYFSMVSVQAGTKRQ
From the text: as §1, §2, §3, §4, §5, §6, §7

ABCB1 [2] = target: T1, ABCB1; test: Type of inhibition: daunorubicin efflux at varied substrate and inhibitor concentrations (FIG. 11); type: cell-based; set-up: expressed in transfected cells; host or cells: NIH3T3 transfected with pHaMDR1/A; conditions: daunorubicin efflux as a function of its concentration

T1 sequence (P08183 whole entry): as above
ABCC1, sequence (P33527 whole entry): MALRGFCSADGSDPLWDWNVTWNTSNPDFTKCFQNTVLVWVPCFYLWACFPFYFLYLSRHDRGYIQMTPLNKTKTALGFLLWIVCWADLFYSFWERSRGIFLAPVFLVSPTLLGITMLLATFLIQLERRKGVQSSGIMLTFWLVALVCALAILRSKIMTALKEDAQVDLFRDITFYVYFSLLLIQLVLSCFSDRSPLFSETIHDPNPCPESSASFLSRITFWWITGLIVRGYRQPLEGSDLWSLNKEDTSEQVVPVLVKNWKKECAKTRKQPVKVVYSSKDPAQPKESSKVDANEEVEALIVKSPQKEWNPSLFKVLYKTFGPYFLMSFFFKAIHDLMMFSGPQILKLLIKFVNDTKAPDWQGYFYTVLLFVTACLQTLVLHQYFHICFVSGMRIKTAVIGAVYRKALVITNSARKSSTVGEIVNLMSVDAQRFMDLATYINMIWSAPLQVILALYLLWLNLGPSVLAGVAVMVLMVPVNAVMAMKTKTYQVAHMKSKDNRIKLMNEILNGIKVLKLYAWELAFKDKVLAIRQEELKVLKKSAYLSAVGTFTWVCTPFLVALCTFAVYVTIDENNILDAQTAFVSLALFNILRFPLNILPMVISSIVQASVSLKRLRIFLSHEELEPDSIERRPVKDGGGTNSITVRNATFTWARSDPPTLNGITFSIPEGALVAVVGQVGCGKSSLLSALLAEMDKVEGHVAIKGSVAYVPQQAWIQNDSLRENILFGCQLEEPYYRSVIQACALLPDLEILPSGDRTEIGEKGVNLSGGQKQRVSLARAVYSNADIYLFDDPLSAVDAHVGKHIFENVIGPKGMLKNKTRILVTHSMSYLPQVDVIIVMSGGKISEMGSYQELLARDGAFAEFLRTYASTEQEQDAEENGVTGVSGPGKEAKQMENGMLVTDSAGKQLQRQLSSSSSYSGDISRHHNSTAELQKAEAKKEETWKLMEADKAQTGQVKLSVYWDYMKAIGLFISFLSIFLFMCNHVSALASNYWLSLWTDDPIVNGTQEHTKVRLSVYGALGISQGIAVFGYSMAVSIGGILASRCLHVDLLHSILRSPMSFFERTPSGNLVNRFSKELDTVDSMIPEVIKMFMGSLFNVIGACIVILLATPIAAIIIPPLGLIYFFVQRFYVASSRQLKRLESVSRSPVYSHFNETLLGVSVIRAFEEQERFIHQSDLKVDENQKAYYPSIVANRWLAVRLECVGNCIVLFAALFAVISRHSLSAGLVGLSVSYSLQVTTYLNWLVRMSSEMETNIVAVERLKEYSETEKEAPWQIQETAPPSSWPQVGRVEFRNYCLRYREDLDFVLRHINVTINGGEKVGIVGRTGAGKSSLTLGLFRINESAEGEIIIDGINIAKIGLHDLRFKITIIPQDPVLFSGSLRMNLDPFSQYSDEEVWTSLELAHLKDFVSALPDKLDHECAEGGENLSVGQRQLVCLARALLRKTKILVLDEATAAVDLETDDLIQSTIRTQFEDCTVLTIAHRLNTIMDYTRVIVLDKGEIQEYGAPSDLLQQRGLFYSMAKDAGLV

| Compound | active or inactive on ABCB1 (ABCB1 [1]) | active or inactive on ABCC1 (ABCC1) | active or inactive on ABCG2 (ABCG2) | other results |
| --- | --- | --- | --- | --- |
| COc1cc2c(cc1OC)CN(CCc1ccc(NC(=O)c3cccc4c(=O)c5cccc(OC)c5[nH]c34)cc1)CC2 [GF 120918, elacridar] | + | − | + |  |
| CC(C)(C)OC(=O)NN(C(=O)N[C@@H](CCCCNC(=O)OCc1ccccc1)C(=O)OC(C)(C)C)c1ccc(C(=O)OCc2ccccc2)cc1 [IA.3, tert-Butyl ester of (2S)-6-(benzyloxycarbonylamino)-2-[1-(4′-(benzyloxycarbonyl)phenyl)-2-(tert-butoxycarbonyl)hydrazino-carbonylamino]hexanoic acid] |  |  |  | selectivity toward one or other of the proteins BCRP or P-gp (BCRP/ABCG2; BCRP versus P-gp): selective; inhibition at 10 μM (BCRP/ABCG2; human, HEK-293 cells transfected with ABCG2 (vector pcDNA3.1), probe mitoxantrone (5 μM), 10 μM compound, mitoxantrone efflux, HEK-293 cells, three independent experiments, read-out: BCRP/ABCG2 % efficacy 10 μM): 38%; IC50 (P-gp/ABCB1): 330 nM; inhibition at 2 μM (P-gp/ABCB1; human, NIH3T3 cells transfected with ABCB1 (vector pHaMDR1/A), probe mitoxantrone (5 μM), 2 μM compound, read-out: P-gp/ABCB1 % efficacy 2 μM): 90 ± 7%; inhibition at 10 μM (P-gp/ABCB1; human, NIH3T3 cells transfected with ABCB1 (vector pHaMDR1/A), probe mitoxantrone (5 μM), 10 μM compound, read-out: P-gp/ABCB1 % efficacy 10 μM): 98 ± 14%; melting point: 106 °C; type of inhibition of ABCB1 (ABCB1 [2]): inhibition of noncompetitive type |
| O[C@@H](COc1cccc2ncccc12)CN1CCN([C@@H]2c3ccccc3[C@@H]3[C@H](c4ccccc42)C3(F)F)CC1 [Ly335979, zosuquidar] |  | − | − |  |
| CCOC/C=C/c1ccc(-c2nc(-c3ccc(NC(C)C)cc3)c(-c3ccc(NC(C)C)cc3)[nH]2)cc1 [ONT-093, ontogen] | + | − |  |  |
| C/C=C/C[C@@H](C)C(=O)[C@H]1C(=O)N[C@@H](C(C)C)C(=O)N(C)CC(=O)N(C)[C@@H](CC(C)C)C(=O)N[C@@H](C(C)C)C(=O)N(C)[C@@H](CC(C)C)C(=O)N[C@@H](C)C(=O)N[C@H](C)C(=O)N(C)[C@@H](CC(C)C)C(=O)N(C)[C@@H](CC(C)C)C(=O)N(C)[C@@H](C(C)C)C(=O)N1C [PSC833, valspodar] | + |  | − |  |
| COC(=O)c1cnc2n1CCc1ccccc1C2=C1CCN(CCc2ccc(OCc3ccc4ccccc4n3)cc2)CC1 [R101933, laniquidar] | + |  |  |  |
| COc1cc(C(=O)C(=O)N2CCCC[C@H]2C(=O)OC(CCCc2cccnc2)CCCc2cccnc2)cc(OC)c1OC [VX-710, biricodar] | + | + | + |  |
| COc1cc2c(cc1OC)CN(CCc1ccc(NC(=O)c3cc(OC)c(OC)cc3NC(=O)c3cnc4ccccc4c3)cc1)CC2 [XR9576, tariquidar] | + |  | + |  |

Source: patent US20120010161A1, “NOVEL AZAPEPTIDE OR AZAPEPTIDOMIMETIC COMPOUNDS INHIBITING BCRP AND/OR P-GP” (CENTRE NATIONAL DE LA RECHERCHE SCIENTIFIQUE, priority 2009, published 2012)
